Source: patent US7423038B2, “Compounds and compositions as protein kinase inhibitors” (IRM LLC (a Delaware Limited Liability Corporation), priority 2004, dated 2008)

Experiments:
[1] = biological target: T1, TrkB (Homo sapiens, UniProt Q16620); assay: Upstate KinaseProfiler radio-enzymatic filter binding assay, TrkB; assay type: biochemical; conditions: at a concentration of 10 μM; read-out: percentage inhibition of TrkB
T1 construct: purchased Upstate (KinaseProfiler panel)
Experimental: (§1) Compounds of the invention are assessed for their ability to inhibit individual members of the kinase panel. The compounds are tested in duplicates at a final concentration of 10 μM following this generic protocol, Note that the kinase buffer composition and the substrates vary for the different kinases included in the “Upstate KinaseProfiler™” panel. Kinase buffer (2.5 μL, 10x—containing MnCl2 when required), active kinase (0.001-0.01 Units; 2.5 μL), specific or Poly(Glu-4-Tyr) peptide (5-500 μM or 0.01 mg/ml) in kinase buffer and kinase buffer ([…]; 5 μL) are mixed in an eppendorf on ice. A Mg/ATP mix (10 μL; 67.5 (or 33.75) mM MgCl2, 450 (or 225) μM ATP and 1 μCi/μl [γ-^32P]-ATP (3000 Ci/mmol)) is added and the reaction is incubated at about 30° C. for about 10 minutes. The reaction mixture is spotted (20 μL) onto a 2 cm×2 cm P81 (phosphocellulose, for positively charged peptide substrates) or Whatman No, 1 (for Poly (Glu-4-Tyr) peptide substrate) paper square. The assay squares are washed 4 times, for 5 minutes each, with 0.75% phosphoric acid and washed once with acetone for 5 minutes. The assay squares are transferred to a scintillation vial, 5 ml scintillation cocktail are added and ^32P incorporation (cpm) to the peptide substrate is quantified with a Beckman scintillation counter. Percentage inhibition is calculated for each reaction.

[2] = biological target: T2, SAPK2α (Homo sapiens, UniProt Q16539); assay: Upstate KinaseProfiler radio-enzymatic filter binding assay, SAPK2α; assay type: biochemical; conditions: at a concentration of 10 μM; read-out: percentage inhibition of SAPK2α
T2 construct: purchased Upstate (KinaseProfiler panel)
Experimental: as §1

[3] = biological target: T3, c-RAF (Homo sapiens, UniProt P04049); assay: Upstate KinaseProfiler radio-enzymatic filter binding assay, c-RAF; assay type: biochemical; conditions: at a concentration of 10 μM; read-out: percentage inhibition of c-RAF
T3 construct: purchased Upstate (KinaseProfiler panel)
Experimental: as §1

[4] = biological target: T4, M351T Bcr-abl (Homo sapiens, UniProt P00519, M351T); assay: Antiproliferative effect on Ba/F3 cells expressing M351T Bcr-abl; assay type: cell-based; conditions: M351T mutant
T4 construct: BCR (fusion partner); expressed in transfected cells; host or cells: Ba/F3 (murine pro-B cells); the other entry of the earlier key: BCR (P11274, Breakpoint cluster region protein)
Experimental: (§2) 32D-p210 cells are plated into 96 well TC plates at a density of 15,000 cells per well. 50 μL of two fold serial dilutions of the test compound (Cmax is 40 μM) are added to each well (STI571 is included as a positive control). After incubating the cells for 48 hours at 37° C., 5% CO2, 15 μl, of MTT (Promega) is added to each well and the cells are incubated for an additional 5 hours. The optical density at 570 nm is quantified spectrophotometrically and IC50 values, the concentration of compound required for 50% inhibition, determined from a dose response curve.
(§3) Compounds of the invention are tested for their antiproliferative effect on Ba/F3 cells expressing either wild type or the mutant forms of BCR-Abl (G250E, E255V, T315I, F317L, M351T) that confers resistance or diminished sensitivity to STI571. The antiproliferative effect of these compounds on the mutant-BCR-Abl expressing cells and on the non transformed cells were tested at 10, 3.3, 1.1 and 0.37 μM as described above (in media lacking IL3). The IC50 values of the compounds lacking toxicity on the untransformed cells were determined from the dose response curves obtained as describe above.

[5] = biological target: T5, MKK6 (Homo sapiens, UniProt P52564); assay: Upstate KinaseProfiler radio-enzymatic filter binding assay, MKK6; assay type: biochemical; conditions: at a concentration of 10 μM; read-out: percentage inhibition of MKK6
T5 construct: purchased Upstate (KinaseProfiler panel)
From the text: (§4) “Kinase Panel” is a list of kinases comprising Abl(human), Abl(T315I), JAK2, JAK3, ALK, JNK1α1, ALK4, KDR, Aurora-A, Lck, Blk, MAFK1, Bmx, MAPKAP-K2, BRK, MEK1, CaMKII(rat), Met, CDK1/cyclinB, p70S6K, CHK2, PAK2, CK1, PDGFRα, CK2, PDK1, c-kit, Pim-2, c-RAF, PKA(h), CSK, PKBα, cSrc, PKCα, DYRK2, Plk3, EGFR, ROCK-I, Fes, Ron, FGFR3, Ros, Flt3, SAPK2α, Fms, SGK, Fyn, SIK, GSK3β, Syk, IGF-IR, Tie-2, IKKβ, TrKB, IR, WNK3, IRAK4, ZAP-70, ITK, AMPK(rat), LIMK1, Rsk2, Ax1, LKB1, SAFK2β, BrSK2, Lyn (h), SAPK3, BTK, MAPKAP-K3, SAPK4, CaMKIV, MARK1, Snk, CDK2/cyclinA, MINK, SRPK1, CDK3/cyclinE, MKK4(m), TAK1, CDK5/p25, MKK6(h), TBK1, CDK6/cyclinD3, MLCK, TrkA, CDK7/cyclinH/MAT1, MRCKβ, TSSK1, CHK1, MSK1, Yes, CK1d, MST2, ZIPK, c-Kit (D816V), MuSK, DAPK2, NEK2, DDR2, NEK6, DMPK, PAK4, DRAK1, PAR-1Bα, EphA1, PDGFRβ, EphA2, Pim-1, EphA5, PKBβ, EphB2, PKCβI, EphB4, PKCδ, FGFR1, PKCη, FGFR2, PKCθ, FGFR4, PKD2, Fgr, PKG1β, Flt1, PRK2, Hck, PYK2, HIPK2, Ret, IKKα, RIPK2, IRR, ROCK-II(human), JNK2α2, Rse, JNK3, Rsk1(h), PI3 Kγ, PI3 Kδ and PI3-Kβ. […]
(§5) Compounds of the invention are assessed for their ability to inhibit individual members of the kinase panel. […] The assay squares are transferred to a scintillation vial, 5 ml scintillation cocktail are added and ^32P incorporation (cpm) to the peptide substrate is quantified with a Beckman scintillation counter. […]

[6] = biological target: T6, Fes (Homo sapiens, UniProt P07332); assay: Upstate KinaseProfiler radio-enzymatic filter binding assay, Fes; assay type: biochemical; conditions: at a concentration of 10 μM; read-out: percentage inhibition of Fes
T6 construct: purchased Upstate (KinaseProfiler panel)
Experimental: as §1

[7] = biological target: T7, FGFR3 (Homo sapiens, UniProt P22607); assay: Upstate KinaseProfiler radio-enzymatic filter binding assay, FGFR3; assay type: biochemical; conditions: at a concentration of 10 μM; read-out: percentage inhibition of FGFR3
T7 construct: purchased Upstate (KinaseProfiler panel)
Experimental: as §1

[8] = biological target: T8, JNK1α1 (Homo sapiens, UniProt P45983); assay: Upstate KinaseProfiler radio-enzymatic filter binding assay, JNK1α1; assay type: biochemical; conditions: at a concentration of 10 μM; read-out: percentage inhibition of JNK1α1
T8 construct: purchased Upstate (KinaseProfiler panel)
Experimental: as §1

[9] = biological target: T9, JNK2α2 (Homo sapiens, UniProt P45984); assay: Upstate KinaseProfiler radio-enzymatic filter binding assay, JNK2α2; assay type: biochemical; conditions: at a concentration of 10 μM; read-out: percentage inhibition of JNK2α2
T9 construct: purchased Upstate (KinaseProfiler panel)
Experimental: as §1

[10] = biological target: T10, SAPK2β (Homo sapiens, UniProt Q15759); assay: Upstate KinaseProfiler radio-enzymatic filter binding assay, SAPK2β; assay type: biochemical; conditions: at a concentration of 10 μM; read-out: percentage inhibition of SAPK2β
T10 construct: purchased Upstate (KinaseProfiler panel)
Experimental: as §1

[11] = biological target: T11, G250E Bcr-abl (Homo sapiens, UniProt P00519, G250E); assay: Antiproliferative effect on Ba/F3 cells expressing G250E Bcr-abl; assay type: cell-based; conditions: G250E mutant
T11 construct: BCR (fusion partner); expressed in transfected cells; host or cells: Ba/F3 (murine pro-B cells); the other entry of the earlier key: BCR (P11274, Breakpoint cluster region protein)
Experimental: as §2, §3

[12] = biological target: T12, wild type Bcr-abl (Homo sapiens, UniProt P00519); assay: Antiproliferative effect on Ba/F3 cells expressing wild type Bcr-abl; assay type: cell-based
T12 construct: BCR (fusion partner); expressed in transfected cells; host or cells: Ba/F3 (murine pro-B cells); the other entry of the earlier key: BCR (P11274, Breakpoint cluster region protein)
Experimental: as §2, §3

[13] = biological target: T13, E255V Bcr-abl (Homo sapiens, UniProt P00519, E255V); assay: Antiproliferative effect on Ba/F3 cells expressing E255V Bcr-abl; assay type: cell-based; conditions: E255V mutant
T13 construct: BCR (fusion partner); expressed in transfected cells; host or cells: Ba/F3 (murine pro-B cells); the other entry of the earlier key: BCR (P11274, Breakpoint cluster region protein)
Experimental: as §2, §3

[14] = biological target: T14, T315I Bcr-abl (Homo sapiens, UniProt P00519, T315I); assay: Antiproliferative effect on Ba/F3 cells expressing T315I Bcr-abl; assay type: cell-based; conditions: T315I mutant
T14 construct: BCR (fusion partner); expressed in transfected cells; host or cells: Ba/F3 (murine pro-B cells); the other entry of the earlier key: BCR (P11274, Breakpoint cluster region protein)
Experimental: as §2, §3

[15] = biological target: T15, Bmx (Homo sapiens, UniProt P51813); assay: Upstate KinaseProfiler radio-enzymatic filter binding assay, Bmx; assay type: biochemical; conditions: at a concentration of 10 μM; read-out: percentage inhibition of Bmx
T15 construct: purchased Upstate (KinaseProfiler panel)
Experimental: as §1

[16] = biological target: T16, p70S6K (Homo sapiens, UniProt P23443); assay: Upstate KinaseProfiler radio-enzymatic filter binding assay, p70S6K; assay type: biochemical; conditions: at a concentration of 10 μM; read-out: percentage inhibition of p70S6K
T16 construct: purchased Upstate (KinaseProfiler panel)
Experimental: as §1

[17] = biological target: T17, IR (Homo sapiens, UniProt P06213); assay: Upstate KinaseProfiler radio-enzymatic filter binding assay, IR; assay type: biochemical; conditions: at a concentration of 10 μM; read-out: percentage inhibition of IR
T17 construct: purchased Upstate (KinaseProfiler panel)
Experimental: as §1

[18] = biological target: T18, Syk (Homo sapiens, UniProt P43405); assay: Upstate KinaseProfiler radio-enzymatic filter binding assay, Syk; assay type: biochemical; conditions: at a concentration of 10 μM; read-out: percentage inhibition of Syk
T18 construct: purchased Upstate (KinaseProfiler panel)
Experimental: as §1

[19] = biological target: T19, Flt3 (Homo sapiens, UniProt P36888); assay: Upstate KinaseProfiler radio-enzymatic filter binding assay, Flt3; assay type: biochemical; conditions: at a concentration of 10 μM; read-out: percentage inhibition of Flt3
T19 construct: purchased Upstate (KinaseProfiler panel)
Experimental: as §1

[20] = biological target: T20, CSK (Homo sapiens, UniProt P41240); assay: Upstate KinaseProfiler radio-enzymatic filter binding assay, CSK; assay type: biochemical; conditions: at a concentration of 10 μM; read-out: percentage inhibition of CSK
T20 construct: purchased Upstate (KinaseProfiler panel)
Experimental: as §1

[21] = biological target: T21, F317L Bcr-abl (Homo sapiens, UniProt P00519, F317L); assay: Antiproliferative effect on Ba/F3 cells expressing F317L Bcr-abl; assay type: cell-based; conditions: F317L mutant
T21 construct: BCR (fusion partner); expressed in transfected cells; host or cells: Ba/F3 (murine pro-B cells); the other entry of the earlier key: BCR (P11274, Breakpoint cluster region protein)
Experimental: as §2, §3

[22] = biological target: T22, Rsk1 (Homo sapiens, UniProt Q15418); assay: Upstate KinaseProfiler radio-enzymatic filter binding assay, Rsk1; assay type: biochemical; conditions: at a concentration of 10 μM; read-out: percentage inhibition of Rsk1
T22 construct: purchased Upstate (KinaseProfiler panel)
From the text: as §4, §5

[23] = biological target: T23, GSK3β (Homo sapiens, UniProt P49841); assay: Upstate KinaseProfiler radio-enzymatic filter binding assay, GSK3β; assay type: biochemical; conditions: at a concentration of 10 μM; read-out: percentage inhibition of GSK3β
T23 construct: purchased Upstate (KinaseProfiler panel)
Experimental: as §1

[24] = biological target: T24, MKK4 (Mus musculus, UniProt P47809); assay: Upstate KinaseProfiler radio-enzymatic filter binding assay, MKK4; assay type: biochemical; conditions: at a concentration of 10 μM; read-out: percentage inhibition of MKK4
T24 construct: purchased Upstate (KinaseProfiler panel)
From the text: as §4, §5

[25] = biological target: T25, PDGFRα (Homo sapiens, UniProt P16234); assay: Upstate KinaseProfiler radio-enzymatic filter binding assay, PDGFRα; assay type: biochemical; conditions: at a concentration of 10 μM; read-out: percentage inhibition of PDGFRα
T25 construct: purchased Upstate (KinaseProfiler panel)
Experimental: as §1

[26] = biological target: T26, Lck (Homo sapiens, UniProt P06239); assay: Upstate KinaseProfiler radio-enzymatic filter binding assay, Lck; assay type: biochemical; conditions: at a concentration of 10 μM; read-out: percentage inhibition of Lck
T26 construct: purchased Upstate (KinaseProfiler panel)
Experimental: as §1

T22 sequence (Q15418 whole entry): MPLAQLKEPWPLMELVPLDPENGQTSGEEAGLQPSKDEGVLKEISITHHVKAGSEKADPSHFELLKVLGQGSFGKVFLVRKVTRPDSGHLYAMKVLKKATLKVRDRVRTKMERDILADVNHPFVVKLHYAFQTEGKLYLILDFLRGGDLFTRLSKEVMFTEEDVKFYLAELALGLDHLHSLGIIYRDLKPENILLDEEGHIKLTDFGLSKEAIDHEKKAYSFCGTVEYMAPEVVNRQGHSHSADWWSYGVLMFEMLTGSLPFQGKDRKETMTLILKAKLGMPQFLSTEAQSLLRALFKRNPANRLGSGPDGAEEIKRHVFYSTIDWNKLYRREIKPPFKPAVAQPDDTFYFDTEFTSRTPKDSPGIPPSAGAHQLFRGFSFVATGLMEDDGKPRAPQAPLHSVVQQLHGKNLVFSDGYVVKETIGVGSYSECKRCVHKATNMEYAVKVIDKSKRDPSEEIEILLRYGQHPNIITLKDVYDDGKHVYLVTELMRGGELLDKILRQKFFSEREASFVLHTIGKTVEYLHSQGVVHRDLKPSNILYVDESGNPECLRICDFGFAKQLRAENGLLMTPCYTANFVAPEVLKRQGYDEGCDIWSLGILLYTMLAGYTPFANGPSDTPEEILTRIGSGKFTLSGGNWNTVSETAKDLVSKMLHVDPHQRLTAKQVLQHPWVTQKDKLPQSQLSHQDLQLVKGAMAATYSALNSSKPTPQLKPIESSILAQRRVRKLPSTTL
T20 sequence (P41240 whole entry): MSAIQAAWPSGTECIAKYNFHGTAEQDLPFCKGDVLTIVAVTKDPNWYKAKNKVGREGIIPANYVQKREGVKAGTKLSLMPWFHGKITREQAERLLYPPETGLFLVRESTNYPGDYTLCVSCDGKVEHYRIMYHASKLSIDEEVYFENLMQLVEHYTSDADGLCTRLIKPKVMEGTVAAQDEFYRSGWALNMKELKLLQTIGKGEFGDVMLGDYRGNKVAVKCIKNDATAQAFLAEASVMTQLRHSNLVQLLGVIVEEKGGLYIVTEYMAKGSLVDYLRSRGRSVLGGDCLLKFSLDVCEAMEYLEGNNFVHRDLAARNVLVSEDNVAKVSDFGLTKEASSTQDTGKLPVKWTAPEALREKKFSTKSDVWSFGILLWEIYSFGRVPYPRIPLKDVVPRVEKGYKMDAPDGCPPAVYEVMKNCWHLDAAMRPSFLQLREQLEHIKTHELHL
T10 sequence (Q15759 whole entry): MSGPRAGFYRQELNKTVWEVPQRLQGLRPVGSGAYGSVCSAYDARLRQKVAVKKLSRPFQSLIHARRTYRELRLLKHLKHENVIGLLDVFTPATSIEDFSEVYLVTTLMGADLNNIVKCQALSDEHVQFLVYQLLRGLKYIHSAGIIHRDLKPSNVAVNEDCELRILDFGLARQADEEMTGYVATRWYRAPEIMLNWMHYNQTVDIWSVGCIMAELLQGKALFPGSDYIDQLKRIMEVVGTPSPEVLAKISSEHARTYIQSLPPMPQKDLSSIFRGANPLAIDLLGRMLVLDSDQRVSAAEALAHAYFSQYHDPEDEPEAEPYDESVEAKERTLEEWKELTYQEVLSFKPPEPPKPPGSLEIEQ
T1 sequence (Q16620 32-822): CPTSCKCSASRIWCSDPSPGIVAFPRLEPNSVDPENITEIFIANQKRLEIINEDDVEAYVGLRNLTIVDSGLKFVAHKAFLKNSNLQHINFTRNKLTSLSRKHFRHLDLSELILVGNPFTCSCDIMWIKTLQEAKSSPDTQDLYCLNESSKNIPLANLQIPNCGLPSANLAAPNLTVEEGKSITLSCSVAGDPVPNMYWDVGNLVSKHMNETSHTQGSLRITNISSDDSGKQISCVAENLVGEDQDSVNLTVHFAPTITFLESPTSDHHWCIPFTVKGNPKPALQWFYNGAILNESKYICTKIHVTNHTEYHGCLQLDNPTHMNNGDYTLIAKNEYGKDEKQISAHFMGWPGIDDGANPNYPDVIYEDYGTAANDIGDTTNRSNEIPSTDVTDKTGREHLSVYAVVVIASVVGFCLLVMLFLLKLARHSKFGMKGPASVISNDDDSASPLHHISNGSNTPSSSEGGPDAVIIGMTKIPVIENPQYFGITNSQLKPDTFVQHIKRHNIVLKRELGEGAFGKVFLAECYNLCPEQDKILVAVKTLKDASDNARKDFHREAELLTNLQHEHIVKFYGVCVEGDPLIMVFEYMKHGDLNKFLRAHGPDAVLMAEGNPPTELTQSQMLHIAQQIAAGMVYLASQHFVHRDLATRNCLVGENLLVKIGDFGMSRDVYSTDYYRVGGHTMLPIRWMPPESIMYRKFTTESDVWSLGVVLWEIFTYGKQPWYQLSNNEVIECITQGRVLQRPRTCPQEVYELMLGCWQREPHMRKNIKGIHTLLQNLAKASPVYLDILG
T5 sequence (P52564 whole entry): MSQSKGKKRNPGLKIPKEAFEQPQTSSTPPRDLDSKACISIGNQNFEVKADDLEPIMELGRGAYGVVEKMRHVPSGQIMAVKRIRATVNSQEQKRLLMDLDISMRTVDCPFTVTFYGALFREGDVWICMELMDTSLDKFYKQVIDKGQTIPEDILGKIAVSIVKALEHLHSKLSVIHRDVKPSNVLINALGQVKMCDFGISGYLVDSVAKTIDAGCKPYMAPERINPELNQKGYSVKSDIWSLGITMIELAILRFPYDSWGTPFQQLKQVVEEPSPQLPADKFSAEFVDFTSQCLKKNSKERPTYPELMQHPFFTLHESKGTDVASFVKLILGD
T6 sequence (P07332 whole entry): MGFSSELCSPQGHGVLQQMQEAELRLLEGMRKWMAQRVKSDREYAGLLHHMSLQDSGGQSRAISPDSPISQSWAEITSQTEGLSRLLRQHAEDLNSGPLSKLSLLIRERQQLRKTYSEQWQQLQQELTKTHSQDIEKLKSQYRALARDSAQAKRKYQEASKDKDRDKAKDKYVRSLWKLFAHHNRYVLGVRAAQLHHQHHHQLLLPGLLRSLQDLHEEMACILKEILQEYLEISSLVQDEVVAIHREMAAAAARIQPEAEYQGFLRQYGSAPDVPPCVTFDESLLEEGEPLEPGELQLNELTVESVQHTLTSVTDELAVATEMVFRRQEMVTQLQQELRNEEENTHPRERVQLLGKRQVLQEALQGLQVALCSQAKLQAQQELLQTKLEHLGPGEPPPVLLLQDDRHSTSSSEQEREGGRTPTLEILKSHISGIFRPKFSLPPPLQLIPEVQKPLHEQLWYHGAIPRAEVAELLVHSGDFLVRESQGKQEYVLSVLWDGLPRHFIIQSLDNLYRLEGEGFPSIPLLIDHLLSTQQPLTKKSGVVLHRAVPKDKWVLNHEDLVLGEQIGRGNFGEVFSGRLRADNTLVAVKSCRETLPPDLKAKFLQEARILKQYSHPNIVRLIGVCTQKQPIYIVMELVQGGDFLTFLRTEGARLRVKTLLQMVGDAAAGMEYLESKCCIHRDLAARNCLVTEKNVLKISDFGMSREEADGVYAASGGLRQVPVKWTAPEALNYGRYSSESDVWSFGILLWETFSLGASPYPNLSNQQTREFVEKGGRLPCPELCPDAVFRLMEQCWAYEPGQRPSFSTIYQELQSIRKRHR
T8 sequence (P45983 1-384 isoform P45983-2): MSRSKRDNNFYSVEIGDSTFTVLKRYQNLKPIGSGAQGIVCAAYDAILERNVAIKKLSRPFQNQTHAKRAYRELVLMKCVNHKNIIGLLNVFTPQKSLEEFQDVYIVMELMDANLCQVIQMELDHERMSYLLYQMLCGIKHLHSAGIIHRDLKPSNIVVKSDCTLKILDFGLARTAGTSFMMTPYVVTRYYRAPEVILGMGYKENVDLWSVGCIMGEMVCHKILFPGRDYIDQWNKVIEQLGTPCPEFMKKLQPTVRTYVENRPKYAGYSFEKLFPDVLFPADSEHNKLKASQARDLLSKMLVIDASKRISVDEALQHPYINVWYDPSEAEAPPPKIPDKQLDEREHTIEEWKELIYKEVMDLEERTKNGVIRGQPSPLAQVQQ
T24 sequence (P47809 whole entry): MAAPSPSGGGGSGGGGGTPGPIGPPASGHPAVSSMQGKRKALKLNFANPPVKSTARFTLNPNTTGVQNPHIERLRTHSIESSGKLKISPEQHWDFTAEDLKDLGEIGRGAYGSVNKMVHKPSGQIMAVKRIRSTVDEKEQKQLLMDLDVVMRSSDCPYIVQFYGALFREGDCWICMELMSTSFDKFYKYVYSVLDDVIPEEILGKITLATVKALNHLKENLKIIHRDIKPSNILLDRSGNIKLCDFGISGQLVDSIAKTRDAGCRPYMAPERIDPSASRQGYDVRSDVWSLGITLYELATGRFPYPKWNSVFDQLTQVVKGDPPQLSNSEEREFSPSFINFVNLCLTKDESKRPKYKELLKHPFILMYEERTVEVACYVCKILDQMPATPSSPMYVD
T2 sequence (Q16539 whole entry): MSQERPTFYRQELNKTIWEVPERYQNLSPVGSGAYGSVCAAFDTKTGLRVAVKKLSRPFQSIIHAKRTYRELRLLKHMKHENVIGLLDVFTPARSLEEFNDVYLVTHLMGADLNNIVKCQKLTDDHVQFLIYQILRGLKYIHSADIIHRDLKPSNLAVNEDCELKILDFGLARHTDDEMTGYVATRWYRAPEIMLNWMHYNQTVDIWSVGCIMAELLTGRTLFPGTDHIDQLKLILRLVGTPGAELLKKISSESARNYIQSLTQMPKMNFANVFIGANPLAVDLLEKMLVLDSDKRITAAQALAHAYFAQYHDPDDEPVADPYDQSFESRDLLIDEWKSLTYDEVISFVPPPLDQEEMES

**Q.** What does the source list for `Cc1ccc(Nc2ncc3nc(-c4cc(NC(=O)c5cccc(C(F)(F)F)c5)ccc4C)c(=O)n(C)c3n2)cn1` [Example 2, N-[4-methyl-3-(8-methyl-2-(6-methyl-pyridin-3-ylamino)7-oxo-7,8-dihydropteridin-6-yl)-phenyl]-3-trifluoromethyl-benzamide]?
**A.** inhibition at 10 µM [1]: 96%; inhibition at 10 µM [2]: 95%; inhibition at 10 µM [3]: 100%; IC50 [4]: < 0.5 nM; inhibition at 10 µM [5]: 97%; inhibition at 10 µM [6]: 100%; inhibition at 10 µM [7]: 98%; inhibition at 10 µM [8]: 98%; inhibition at 10 µM [9]: 99%; inhibition at 10 µM [10]: 99%; IC50 [11]: 23 nM; IC50 [12]: < 0.5 nM; IC50 [13]: 13 nM; IC50 [14]: 55 nM; inhibition at 10 µM [15]: 100%; inhibition at 10 µM [16]: 98%; inhibition at 10 µM [17]: 60%; inhibition at 10 µM [18]: 76%; inhibition at 10 µM [19]: 64%; inhibition at 10 µM [20]: 98%; IC50 [21]: < 0.5 nM; inhibition at 10 µM [22]: 90%; inhibition at 10 µM [23]: 53%; inhibition at 10 µM [24]: 92%; inhibition at 10 µM [25]: 76%; inhibition at 10 µM [26]: 98%
